Molecular target: T1, urease (UreB subunit) (Helicobacter pylori, UniProt P69996)
T1 construct: native crude urease of H. pylori ATCC 43504 (UreA and UreB subunits); with UreA (urease subunit)
Test: urease activity inhibition in crude urease preparation, indophenol (ammonia release) assay; Western blot of subunits
Type: biochemical

T1 sequence (P69996 whole entry): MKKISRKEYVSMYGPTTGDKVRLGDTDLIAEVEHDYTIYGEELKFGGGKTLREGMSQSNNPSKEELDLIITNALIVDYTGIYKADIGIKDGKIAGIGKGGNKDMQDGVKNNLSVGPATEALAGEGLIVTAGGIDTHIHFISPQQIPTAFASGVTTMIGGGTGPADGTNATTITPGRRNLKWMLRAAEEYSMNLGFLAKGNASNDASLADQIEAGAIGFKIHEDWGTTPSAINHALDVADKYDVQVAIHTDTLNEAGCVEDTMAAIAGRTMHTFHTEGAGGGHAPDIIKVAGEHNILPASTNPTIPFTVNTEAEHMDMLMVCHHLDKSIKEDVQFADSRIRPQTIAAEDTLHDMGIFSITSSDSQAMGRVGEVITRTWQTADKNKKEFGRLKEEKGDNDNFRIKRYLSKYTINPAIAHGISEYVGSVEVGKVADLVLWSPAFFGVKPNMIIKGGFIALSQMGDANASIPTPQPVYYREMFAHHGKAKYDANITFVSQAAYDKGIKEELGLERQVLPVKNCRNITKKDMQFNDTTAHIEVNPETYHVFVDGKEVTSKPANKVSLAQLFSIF

## O=C(O[C@@H]1Cc2c(O)cc(O)cc2O[C@@H]1c1cc(O)c(O)c(O)c1)c1cc(O)c(O)c(O)c1 [(–)-epigallocatechin gallate]
  IC50: 30 µM
